In patent US20170226059A1, “APOE4-TARGETED THERAPUTICS THAT INCREASE SIRT1” (The Regents of the University of California, priority 2014, published 2017):

Tested on: sAPPα
Assay: sAPPα levels in the presence of ApoE4 (AlphaLISA)
Assay type: cell-based
Details: in the presence of ApoE4 (ApoE4-transfected cells)
Method: (§1) sAPPα or sAPPβ secreted into the cellular media are determined with sAPPα or sAPPβ AlphaLISA immunoassay kits (PerkinElmer) according to the manufacturer's protocol with some modifications. The standards, blanks, and media are diluted with the buffer provided in the kit and added to the plate. During the first incubation step, the analyte is captured either by an antibody recognizing the α-secretase cleavage site at sAPPα C-terminus (clone 2B3) or the sAPPβ C-terminus, and then by a second biotin-labeled antibody specific to the N-terminal common domain of sAPP. In the second incubation step, the biotinylated anti-analyte antibody is bound to the streptavidin-coated donor beads. At the end of this reaction, the plates are read on an EnSpire Alpha 2390 multilabel plate reader equipped with the AlphaScreen module. The Aβ1-42 or 1-40 are determined from media and/or cells using Life Science's sandwich ELISA kit. The levels of Aβ are quantified from a standard curve and normalized to total cellular protein (Spilman et al. (2014) Brain Res. 1551: 25-44; Theendakara et al. (2013) Proc. Natl. Acad. Sci. USA, 10(45): 18303-18308), Tau and p-tau are determined from cell extracts by a solid phase double antibody sandwich ELISA technology designed for quantitative determination of phospho-tau (Antibodies-Online). APP and p-APP are determined by the DuoSet IC ELISA (R&D Systems) to measure phosphorylated APP in cell lysates. An immobilized capture antibody specific for APP binds both phosphorylated and unphosphorylated APP. After unbound material is washed away, a biotinylated detection antibody is used to detect either APP or phosphor-APP utilizing a standard HRP format. Using these assay procedures we notice a significant increase in p-tau and p-APP levels in ApoE4-transfected cells. It can be determined whether the primary “hits” reverse the ApoE4-mediated APP-Thr phosphorylation and tau-phosphorylation.

Compound | sAPPα levels
Cc1c[nH]c(-c2cnc(NCCNc3ccc(C#N)cn3)nc2-c2ccc(Cl)cc2Cl)n1 [CHIR99021] | reversed the reduction in sAPPα

Same assay, conditions: in the presence of ApoE4 (ApoE4-transfected cells); listed as CHIR

Compound | sAPPα levels
Cc1c[nH]c(-c2cnc(NCCNc3ccc(C#N)cn3)nc2-c2ccc(Cl)cc2Cl)n1 [CHIR99021] | restores sAPPα levels

Tested on: SirT1
Assay: Primary AlphaLISA screening assay: SirT1 levels in N2a cells stably transfected with ApoE4
Assay type: cell-based, mouse
Details: N2A neuroblastoma cells stably transfected with ApoE4
Method: We have developed a primary screening assay that is HTS formatable; the assay would be done on N2a cells (mouse neuroblastoma cells) that have been stably transfected with ApoE3 and ApoE4. The cells are treated with drugs and the SirT1 levels are measured using the AlphaLISA assay that we have developed, e.g., as shown in FIG. 11. The illustrated AlphaLISA uses an antibody (Ab, E104, Abcam) that binds the C-terminus of SirT1 and is on the acceptor bead. The N-terminal Ab (D1D7, Abcam) is biotinylated and binds to the donor bead. For the primary assay the Neuro-2a (N2a) cells stably expressing similar levels of hApoE3 or hApoE4 are used. The primary assay can be done in triplicate. The N2a cells have reasonably good endogenous levels of APP thus avoiding the necessity of APP transfection. In general, for the assays N2a cells stably transfected with hApoE3 (E3) or hApoE4 (E4) are plated, e.g., at […] in 384-well plates in […] of growth medium and allowed to attached for 3 h. The E4 cells are treated with compounds overnight, E3 cells are controls. The following day, growth medium is removed and cells are lysed with AlphaLysis buffer complemented with protease and phosphatase inhibitors.
Then, the AlphaLISA assay is run and molecules that can increase or reverse the SirT1 levels in ApoE4 cells are identified. A preliminary estimate, based on the initial screening which yielded two reproducible “hits” from a set of 1000 compounds, which is a 0.2% hit-rate. […] Our initial screening was done on a small library of about 1000 compounds. The assay is translatable to a HTS format.

Compound | SirT1 levels (dose-response)
Clc1cccc(Cl)c1N=C1NCCN1 [Compound A02, clonidine] | flat

Same assay, conditions: initial screen of about 1000 compounds

Compound | effect on SirT1 levels in initial screen
CNCCC(Oc1ccc(C(F)(F)F)cc1)c1ccccc1 (stereo not drawn) [Prozac] | no affect on SirT1 levels

Same assay, conditions: primary screening assay, ApoE4 cells

Compound | Primary Assay (SrT1 increase)
1-(3,4-difluorophenyl)-2-methylpropan-2-yl 2-aminoethanoate [Compound 21] | II (activity II 10-30%)
1-(4-chlorophenyl)-2-methylpropan-2-yl pyrrolidine-2-carboxylate [Compound 20] | I (activity I < 10%)
2-amino-N-(1-(4-chlorophenyl)-2-methylpropan-2-yl)propanamide [Compound 15] | III (activity III > 30 SrT1 increase)
CC(N)C(=O)OC(C)(C)Cc1ccccc1 (stereo not drawn) [Compound 1, 2-methyl-1-phenylpropan-2-yl 2-aminopropanoate] | II (activity II 10-30%)
CC(C)(Cc1ccc(Cl)cc1)OC(=O)C(N)Cc1ccccc1 (stereo not drawn) [Compound 2, 1-(4-chlorophenyl)-2-methylpropan-2-yl 2-amino-3-phenylpropanoate] | I (activity I < 10%)
CC(N)C(=O)OC(C)(C)Cc1ccc(F)c(F)c1 (stereo not drawn) [Compound 3, 1-(3,4-difluorophenyl)-2-methylpropan-2-yl 2-aminopropanoate] | III (activity III > 30 SrT1 increase)
CC(N)C(=O)OC(C)(C)Cc1ccc(F)cc1 (stereo not drawn) [Compound 4, 1-(4-fluorophenyl)-2-methylpropan-2-yl 2-aminopropanoate] | II (activity II 10-30%)
CC(C)CC(N)C(=O)OC(C)(C)Cc1ccc(Cl)cc1 (stereo not drawn) [Compound 5, 1-(4-chlorophenyl)-2-methylpropan-2-yl 2-amino-4-methylpentanoate] | I (activity I < 10%)
Cc1ccc(CC(C)(C)OC(=O)C(C)N)cc1 (stereo not drawn) [Compound 6, 2-methyl-1-p-tolylpropan-2-yl 2-aminopropanoate] | II (activity II 10-30%)
CC(C)(Cc1ccc(Cl)cc1)OC(=O)CN [Compound 7, 1-(4-chlorophenyl)-2-methylpropan-2-yl 2-aminoethanoate] | II (activity II 10-30%)
CC(C)C(N)C(=O)OC(C)(C)Cc1ccc(Cl)cc1 (stereo not drawn) [Compound 8, 1-(4-chlorophenyl)-2-methylpropan-2-yl 2-amino-3-methylbutanoate] | II (activity II 10-30%)
CC(N)C(=O)OC1(Cc2ccc(Cl)cc2)CCC1 (stereo not drawn) [Compound 9, 1-(4-chlorobenzyl)cyclobutyl 2-aminopropanoate] | I (activity I < 10%)
CC(N)C(=O)OC1(Cc2ccc(Cl)cc2)CCCCC1 (stereo not drawn) [Compound 10, 1-(4-chlorobenzyl)cyclohexyl 2-aminopropanoate] | I (activity I < 10%)
CCC(C)C(N)C(=O)OC(C)(C)Cc1ccc(Cl)cc1 (stereo not drawn) [Compound 11, 1-(4-chlorophenyl)-2-methylpropan-2-yl 2-amino-3-methylpentanoate] | II (activity II 10-30%)
CC(N)C(=O)OC(C)(C)CCc1ccc(Cl)cc1 (stereo not drawn) [Compound 12, 4-(4-chlorophenyl)-2-methylbutan-2-yl 2-aminopropanoate] | II (activity II 10-30%)
CC(C)(Cc1ccc(Cl)cc1)OC(=O)C(N)CCCCN (stereo not drawn) [Compound 13, 1-(4-chlorophenyl)-2-methylpropan-2-yl 2,6-diaminohexanoate] | II (activity II 10-30%)
CC(N)C(=O)OC(C)(C)Cc1cc(F)cc(F)c1 (stereo not drawn) [Compound 14, 1-(3,5-difluorophenyl)-2-methylpropan-2-yl 2-aminopropanoate] | III (activity III > 30 SrT1 increase)
CC(C)(Cc1ccc(Cl)cc1)OC(=O)C(N)CO (stereo not drawn) [Compound 16, 1-(4-chlorophenyl)-2-methylpropan-2-yl 2-amino-3-hydroxypropanoate] | II (activity II 10-30%)
CC(C)(Cc1ccc(Cl)cc1)OC(=O)CCN [Compound 17, 1-(4-chlorophenyl)-2-methylpropan-2-yl 3-aminopropanoate] | I (activity I < 10%)
C[C@H](N)CC(=O)OC(C)(C)Cc1ccc(Cl)cc1 [Compound 18, (S)-1-(4-chlorophenyl)-2-methylpropan-2-yl 3-aminobutanoate] | I (activity I < 10%)
CC(C)(Cc1ccc(Cl)cc1)OC(=O)C1CCCCN1 (stereo not drawn) [Compound 19, 1-(4-chlorophenyl)-2-methylpropan-2-yl piperidine-2-carboxylate] | II (activity II 10-30%)
CC(N)C(=O)NC(C)(C)Cc1ccc(F)c(F)c1 (stereo not drawn) [Compound 22, 2-amino-N-(1-(3,4-difluorophenyl)-2-methylpropan-2-yl)propanamide] | III (activity III > 30 SrT1 increase)
CNC(C)C(=O)OC(C)(C)Cc1ccc(Cl)cc1 (stereo not drawn) [Compound 23, 1-(4-chlorophenyl)-2-methylpropan-2-yl 2-(methylamino)propanoate] | I (activity I < 10%)
CC(C)(Cc1ccc(F)c(F)c1)NC(=O)C1CCCN1 (stereo not drawn) [Compound 24, N-(1-(3,4-difluorophenyl)-2-methylpropan-2-yl)pyrrolidine-2-carboxamide] | II (activity II 10-30%)

Tested on: obese mice
Assay: not given
Details: cited from earlier work

Compound | extension of lifespan [%]
O=C(Nc1ccccc1-c1cn2c(CN3CCNCC3)csc2n1)c1cnc2ccccc2n1 [SRT1720] | 44

Tested on: p-APP
Assay: APP phosphorylation (p-APP) in cells transfected with ApoE4
Assay type: cell-based
Details: not given
Method: as §1

Compound | APP phosphorylation (p-APP)
Cc1c[nH]c(-c2cnc(NCCNc3ccc(C#N)cn3)nc2-c2ccc(Cl)cc2Cl)n1 [CHIR99021] | reversed
CC(C)CC(=O)Nc1[nH]nc2c1CN(C(=O)C1CCN(C)CC1)C2(C)C [PHA793887] | attenuated

Same assay, conditions: listed as CHIR

Compound | APP phosphorylation (p-APP)
Cc1c[nH]c(-c2cnc(NCCNc3ccc(C#N)cn3)nc2-c2ccc(Cl)cc2Cl)n1 [CHIR99021] | reduces APP phosphorylation

Tested on: p-tau
Assay: tau phosphorylation (p-tau) in cells transfected with ApoE4
Assay type: cell-based
Details: not given
Method: sAPPα or sAPPβ secreted into the cellular media are determined with sAPPα or sAPPβ AlphaLISA immunoassay kits (PerkinElmer) according to the manufacturer's protocol with some modifications. The standards, blanks, and media are diluted with the buffer provided in the kit and added to the plate. During the first incubation step, the analyte is captured either by an antibody recognizing the α-secretase cleavage site at sAPPα C-terminus (clone 2B3) or the sAPPβ C-terminus, and then by a second biotin-labeled antibody specific to the N-terminal common domain of sAPP. In the second incubation step, the biotinylated anti-analyte antibody is bound to the streptavidin-coated donor beads. At the end of this reaction, the plates are read on an EnSpire Alpha 2390 multilabel plate reader equipped with the AlphaScreen module. The Aβ1-42 or 1-40 are determined from media and/or cells using Life Science's sandwich ELISA kit. The levels of Aβ are quantified from a standard curve and normalized to total cellular protein (Spilman et al. (2014) Brain Res. 1551: 25-44; Theendakara et al. (2013) Proc. Natl. Acad. Sci. USA, 10(45): 18303-18308), Tau and p-tau are determined from cell extracts by a solid phase double antibody sandwich ELISA technology designed for quantitative determination of phospho-tau (Antibodies-Online). […]

Compound | p-tau
CC(C)CC(=O)Nc1[nH]nc2c1CN(C(=O)C1CCN(C)CC1)C2(C)C [PHA793887] | attenuated
